Measurements taken from ChEMBL document CHEMBL1687787, “Emergence and Distribution of Plasmids Bearing the blaOXA-51-like gene with an upstream ISAba1 in carbapenem-resistant Acinetobacter baumannii isolates in Taiwan” (2010).
In brackets after ≈: the same amount, converted by molar mass. Activity calls are given as the source filed them. The rule behind the calls is not given here.

How the values were obtained:
Acinetobacter baumannii [1] = assay: Antimicrobial activity against Acinetobacter baumannii F-type isolate transformed with plasmid harboring ISAba1-blaOXA-82 by agar dilution method
Acinetobacter baumannii [2] = assay: Antimicrobial activity against Acinetobacter baumannii ATCC 15151 transformed with plasmid harboring ISAba1-blaOXA-82 by agar dilution method; format: functional
Acinetobacter baumannii [3] = assay: Antimicrobial activity against Acinetobacter baumannii ATCC 15151 transformed with shuttle vector carrying beta-lactamase OXA-82 by agar dilution method; format: functional
Acinetobacter baumannii [4] = assay: Antimicrobial activity against Acinetobacter baumannii F-type isolate by agar dilution method; format: functional
Acinetobacter baumannii [5] = assay: Antimicrobial activity against Acinetobacter baumannii ATCC 15151 by agar dilution method; format: functional
Acinetobacter baumannii [6] = assay: Antimicrobial activity against Acinetobacter baumannii clinical isolate harboring chromosomally encoded ISAba1-blaOXA-51-like gene with fxsA upstream sequence by agar dilution method in presence of Tazobactam; format: functional, organism-based
Acinetobacter baumannii [7] = assay: Antimicrobial activity against Acinetobacter baumannii clinical isolate harboring plasmid encoded ISAba1-blaOXA-51-like gene with nuc upstream sequence by agar dilution method in presence of Tazobactam; format: functional, organism-based

Row | SMILES | MIC (Acinetobacter baumannii [1]) [µg/mL] | MIC (Acinetobacter baumannii [2]) [µg/mL] | MIC (Acinetobacter baumannii [3]) [µg/mL] | MIC (Acinetobacter baumannii [4]) [µg/mL] | MIC (Acinetobacter baumannii [5]) [µg/mL] | Activity (Acinetobacter baumannii [6]) | Activity (Acinetobacter baumannii [7])
1 | C[C@@H](O)[C@H]1C(=O)N2C(C(=O)O)=C(SCCNC=N)C[C@H]12 [IMIPENEM ANHYDROUS] | 64 (≈ 214 µM) | 32 (≈ 107 µM) | 2 (≈ 6.68 µM) | 4 (≈ 13.4 µM) | 0.5 (≈ 1.67 µM) | – | –
2 | CCN1CCN(C(=O)N[C@@H](C(=O)N[C@@H]2C(=O)N3[C@@H]2SC(C)(C)[C@@H]3C(=O)O)c2ccccc2)C(=O)C1=O | – | – | – | – | – | inactive | inactive
